# Measurements taken from a melting point compilation (Tetko et al.; mined from patent text by program, amines drawn as free bases though some values may be those of a salt).
row,Compound,melting point
1,CCCC[C@H](NC(=O)[C@H](CC(C)C)NC(=O)c1cccc(F)c1F)C(=O)CSCc1ccco1,120 to 122 °C
2,CCN(CC)CCNC(=O)c1cc(Cl)c(N)cc1OCCCCS(C)=O (stereo not given),80 to 83 °C
3,O=C(Nc1ccc(Cl)c(Cl)c1)OC1CN2CCC1CC2 (stereo not given),181 to 184 °C
4,CC(Cc1ccc(OCCCCCCCCCCCO)cc1)NCC(O)c1cccc(C(F)(F)F)c1 (stereo not given),45 to 50 °C
5,CCCCCC1OCc2cc(C#N)ccc2O1 (stereo not given),40.5 to 41 °C
6,CCON=C(C(C)=NOCc1ccccc1C(=COC)C(=O)OC)c1ccc(OC(C)c2ccc(Cl)cc2)cc1 (stereo not given),107 to 109 °C
7,CC(=O)Oc1ccccc1C(=O)C1c2ccccc2C(=O)N1CCO[N+](=O)[O-] (stereo not given),81 to 83 °C
8,O=C1C(c2cc3c(cc2O)OCCO3)c2c(F)cccc2N1C(c1ccccc1)c1ccccc1 (stereo not given),115 to 118 °C
9,CC1(C)CC(N)CC(C)(C)N1Cc1ccccc1,73 to 75 °C
10,COC(=O)CC(C)C1CCC2C3CC=C4CC(O)CC(O)C4(C)C3CCC12C (stereo not given),144 to 146 °C
11,Cc1ccc([C@@H]2Sc3cc(COC(c4ccccc4)(c4ccccc4)c4ccccc4)ccc3N(CCN(C)C)C(=O)[C@@H]2O)cc1,110 to 114 °C
12,CCOP(=O)(OCC)C(C)(C)NC(=O)c1cccc(NC(=O)c2cccc([N+](=O)[O-])c2)c1,120 to 121 °C
13,C#Cc1cc(C)cc(C)c1-c1c(O)c(C)nn(C)c1=O,179 to 181 °C
14,N#CCc1ccccc1CCc1ccc(Br)cc1,59 to 60.5 °C
15,CN(Cc1ccccc1)C(=O)C[C@@H](Cc1ccccc1)C(=O)O,119 to 121 °C
16,CCOC(=O)c1cc(O)c2ccc3c(c2c1-c1cc(OC)c(OC)c(OC)c1)OCO3,151 to 152 °C
17,COC(=O)Cn1c(C(=O)Nc2nc(-c3cc(OC)c(C)cc3OC)c(CCC3CCCCC3)s2)cc2cc(C)cc(C)c21,154 to 162 °C
18,CCOC(=O)c1ccc(NC(=O)C(C)C)c([N+](=O)[O-])c1,74 to 76 °C

row,Compound,melting point
1,CC(C)c1ccc([N+](=O)[O-])c(C(C)C)c1NC(=O)CN1CCN(CCSc2nc3cccc(C(F)(F)F)c3o2)CC1,115 to 117 °C
2,O=C(O)C1CCc2[nH]c3ccccc3c2C1 (stereo not given),198 to 199 °C
3,Nc1cccc(-c2cncc(OC[C@@H]3CCN3)c2)c1,85 to 87 °C
4,O=C1CC(CP(=O)(c2ccccc2)c2ccccc2)O1 (stereo not given),154 to 155 °C
5,CCCCCC(=O)NC(=O)C(c1ccccc1)c1ccccc1,87 °C
6,COc1cc2c(cc1OC)CCC(C(=O)N1CCN(C(=O)c3cc(OC)c(OC)cc3OC)CC1)=C2,171 to 172 °C
7,Cc1cc(C2=NN(C(=O)OC(C)(C)C)[C@H](C)Cc3cc4c(cc32)OCO4)cc(C)c1[N+](=O)[O-],222 to 223 °C
8,O=C1CNc2ncc(I)cc2N1Cc1ccccc1OC(F)(F)F,235 °C
9,N#CC(=NNCc1c(Cl)cc(C(F)(F)F)cc1Cl)c1ccc(C#N)cc1,92 to 93 °C
10,CCCCN(C1CCCOc2ccccc21)S(C)(=O)=O (stereo not given),78 to 79 °C
11,COc1cc2c(cc1[N+](=O)[O-])-c1c(-c3cccs3)c3c(n1CC2)C(=O)N(C(C)(C)C)CC3,226 to 227 °C
12,CN(C)C1Cc2cccc3ccn(c23)C1 (stereo not given),114 to 115 °C
13,CC1(C)OCC(C)(C)c2cc(OS(C)(=O)=O)ccc2O1,65 to 67 °C
14,CCCc1c(OCc2cccc(C(=O)OCC)c2OCC)ccc(C(C)=O)c1O,59 to 62 °C
15,CCOC(=O)c1cn(C)c2c(=O)c3ccccc3oc2c1=O,251 to 254 °C
16,CCOC(=O)C(Cc1ccccc1CCCBr)(NC(C)=O)C(=O)OCC,73 to 74.5 °C
17,CCCCCCCCCCCCCCCCC(O)CCCOC1CCCCO1 (stereo not given),39 to 43 °C

# Other lines, results leading:
row,melting point,Compound
1,152 to 153 °C,CSc1ccc2c(=O)n([C@H](C)[C@](O)(Cn3cncn3)c3ccc(F)cc3F)cnc2c1
2,262 to 264 °C,CCOC(=O)c1cnc2ccc(CC)nc2c1O
3,179 to 181 °C,CCOC(=O)c1c(CN(CC)CC)nc2sc3cnccc3c2c1-c1ccc(O)c(OC)c1
4,224 to 227 °C,COc1ccc(C(=O)Nc2ccccc2)cc1NS(=O)(=O)c1ccc([N+](=O)[O-])cc1
5,204 °C,Cn1nccc1CCS(=O)(=O)Cc1ccc(OCc2coc(C=Cc3ccc(C(F)(F)F)cc3)n2)cc1
6,221 to 224 °C,Cc1ccc(OCc2ccccc2)c2[nH]c(-c3ccccc3)nc12
7,81 to 93 °C,Cc1nc(C)c(Cl)c(NCc2nccc(N(C)CCN3CCc4ccccc4C3)c2Cl)n1
8,138 to 140 °C,CC(=O)n1c(C)c(-c2ccccc2)c(=O)n1-c1ncccn1
9,152 to 153 °C,CC(C)n1ccnc1S(=O)(=O)c1ccc(O)cc1
10,261 to 266 °C,N#Cc1cc(-c2cccc(F)c2)c[nH]c1=O
11,145 to 146 °C,CCC1(CCCCN2CCN(c3ccc(Cl)cc3)CC2)C(=O)Nc2ccccc21 (stereo not given)
12,236 to 239 °C,CCOc1ccc2nc3cc(OC)c(=O)c(Cl)c-3sc2c1
13,150 °C,CCOC(=O)N1CCc2nc3ccccc3c(Oc3ccccc3)c2CC1
14,> 260 °C,CCOC(=O)C=CC(=O)Nc1ccc2c(Nc3cccc(Br)c3)ncnc2c1
15,197 °C,Cc1csc2c1cc(C(=O)c1ccccc1)n2CC(=O)O
16,198 to 201 °C,NC(=O)c1sc2nc(N3CCC(NCC(O)c4ccc5ccccc5n4)CC3)cc(C(F)(F)F)c2c1N (stereo not given)
17,121 to 123 °C,CCOc1ccc(CN2C(=O)SC(S(=O)(=O)c3ccc(C)cc3)C2=O)c(OCC)c1 (stereo not given)
18,144 to 146 °C,Cc1ccc(C(=C/C=C/C(=O)NCCCCc2cccnc2)c2ccc(C)cc2)cc1

row,melting point,Compound
1,110 to 113 °C,Cc1ccccc1C(C)Oc1cc(OCc2ccccc2)ccc1C(=O)O (stereo not given)
2,74 to 75 °C,CN(CCOc1ccc(C=O)cc1)c1ncccn1
3,185 to 187 °C,COc1ccc(Oc2c(OC)cc(N)c3nccc(C)c23)cc1
4,212 to 214 °C,CC(=O)N(N)c1ccc(C(F)(F)F)cc1NC(=O)c1ccccc1
5,65 to 70 °C,Cc1ccc(Cl)c(C2CCc3c(C)cnnc3C2)c1 (stereo not given)
6,230 to 232 °C,Cc1cc(C)c(-c2cn(C)c3c(O)ncnc23)c(C)c1
7,230 to 231 °C,NC(=NN=Cc1c(Cl)cccc1Cl)Nc1c(Cl)cccc1Cl
8,205 to 207 °C,CNC(=O)Nc1cc(CNc2ncccc2C(=O)Nc2ccc3cn(C)nc3c2)ccn1
9,260 to 270 °C,CC(c1ccccc1)c1cc2c(=O)[nH]c(N)nc2s1 (stereo not given)
10,45.8 to 52.8 °C,CCc1nn2c(-c3ccc(OC)cc3Cl)cccc2c1N(CCF)CCOC
11,163 to 164 °C,CCc1nn2c(-c3cccc(C(F)(F)F)c3)c(C)cnc2c1C#N
12,121 to 125 °C,C#Cc1cccc(Oc2nc(Cl)nc(Oc3cccc(C#C)c3)n2)c1
13,150 to 151 °C,NC(=O)c1c(-c2ccc(Cl)cc2)csc1N
14,198 to 200 °C,c1cnc(N2CCN(Cc3nc4ccccc4[nH]3)CC2)nc1
15,131 to 133 °C,c1ccc(CN2CCC(Nc3cccnc3)CC2)cc1
16,117 to 118 °C,Cc1ccc(N)cc1Nc1nccc(-c2ccc(Cl)nc2)n1
17,181 to 183 °C,CN1C(=O)CC[C@]2(C)c3ccc(-c4cccc([N+](=O)[O-])c4)cc3CC[C@@H]12
